The record followed here is patent US20160031839A1, “ARGININE […] INHIBITORS AND USES THEREOF” (EPIZYME, INC., priority 2013, published 2016).

Read-outs that look alike come from different tables or passages of the source.

One may read the IC50 as the concentration that gives 50% inhibition.

In the test the target is T1, PRMT3 (Homo sapiens, UniProt O60678).
T1 construct: made in house; host or cells: E. coli BL21(DE3) Gold
The test is described as follows: PRMT3 Biochemical Assay. The text has this: Peptide containing the classic RMT substrate motif was synthesized with an N-terminal linker-affinity tag motif and a C-terminal amide cap by 21st Century Biochemicals. The peptide was purified by high-performance liquid chromatography (HPLC) to greater than 95% purity and confirmed by liquid chromatography mass spectrometry (LC-MS). The sequence was Biot-Ahx-[…]-amide (SEQ ID NO.:11).
Full-length human PRMT3 (NM_005788.3) isoform 1 transcript clone was amplified from an HEK 293 cDNA library and subcloned into pGEX-KG (GE Life Sciences). The resulting construct encodes an N-terminal GST tag and a thrombin cleavage sequence
GST-tagged PRMT3 was eluted with 50 mM Tris, 2 mM glutathione, pH 7.1 and 50 mM Tris, 20 mM glutathione, pH 7.1. Pooled fractions were dialysed in 20 mM Tris, 50 mM NaCl, 5% glycerol, 1 mM EDTA, 1 mM DTT, pH7.5 (Buffer B) and applied to a Q Sepharose Fast Flow column. GST-tagged PRMT3 was eluted by 500 mM NaCl in buffer B. Pooled fractions were dialyzed in 25 mM phosphate buffer, 100 mM NaCl, 5% glycerol, 2 mM DTT, pH 6.8 (Buffer C) and loaded on to a ceramic hydroxyapatite column. GST-tagged PRMT3 eluted with 25-400 mM phosphate in buffer C. Protein was concentrated and buffer was exchanged to 20 mM Tris, 150 mM NaCl, 5% glycerol, 5 mM β-mercaptoethanol, pH7.8 by ultrafiltration. The purity of recovered protein was 70%.
General Procedure for PRMT3 Enzyme Assays on Peptide Substrates.
The assays were all performed in a buffer consisting of 20 mM Bicine (pH=7.6), 1 mM TCEP, 0.005% BSG, and 0.002% Tween 20, prepared on the day of use. Compounds in 100% DMSO (1 ul) were spotted into a polypropylene 384-well V-bottom plates (Greiner) using a Platemate Plus outfitted with a 384-channel head (Thermo Scientific). DMSO (1 ul) was added to Columns 11, 12, 23, 24, rows A-H for the maximum signal control and 1 ul of SAH, a known product and inhibitor of PRMT3, was added to columns 11, 12, 23, 24, rows I-P for the minimum signal control. A cocktail (40 ul) containing the PRMT3 enzyme was added by Multidrop Combi (Thermo-Fisher). The compounds were allowed to incubate with PRMT3 for 30 min at room temperature, then a cocktail (10 ul) containing SAM and peptide was added to initiate the reaction (final volume=51 ul). The final concentrations of the components were as follows: PRMT3 was 0.5 nM, ^3H-SAM was 100 nM, non-radiolabeled SAM was 1.8 uM, peptide was 330 nM, SAH in the minimum signal control wells was 1 mM, and the DMSO concentration was 2%. The assays were stopped by the addition of potassium chloride (10 ul) to a final concentration of 100 mM. 50 ul of the reaction in the 384-well polypropylene plate was then transferred to a 384-well Flashplate and the biotinylated peptides were allowed to bind to the streptavidin surface for at least 1 hour before being washed once with 0.1% Tween20 in a Biotek ELx405 plate washer. The plates were then read in a PerkinElmer TopCount plate reader to measure the quantity of ^3H-labeled peptide bound to the Flashplate surface, measured as disintegrations per minute (dpm) or alternatively, referred to as counts per minute (cpm).
Where dpm=disintegrations per minute, cmpd=signal in assay well, and min and max are the respective minimum and maximum signal controls.
Where top and bottom are the normally allowed to float, but may be fixed at 100 or 0 respectively in a 3-parameter fit. The Hill Coefficient normally allowed to float but may also be fixed at 1 in a 3-parameter fit. Y is the % inhibition and X is the compound concentration.

Setting [1] is: Table 2, biochemical evaluation, read-out: PRMT3 IC50 (class).
The mark [2] stands for this setting: Table 2a, numerical, single experiment or average of multiple experiments, read-out: PRMT3 IC50.

T1 sequence (O60678 with tags, fused parts or gaps): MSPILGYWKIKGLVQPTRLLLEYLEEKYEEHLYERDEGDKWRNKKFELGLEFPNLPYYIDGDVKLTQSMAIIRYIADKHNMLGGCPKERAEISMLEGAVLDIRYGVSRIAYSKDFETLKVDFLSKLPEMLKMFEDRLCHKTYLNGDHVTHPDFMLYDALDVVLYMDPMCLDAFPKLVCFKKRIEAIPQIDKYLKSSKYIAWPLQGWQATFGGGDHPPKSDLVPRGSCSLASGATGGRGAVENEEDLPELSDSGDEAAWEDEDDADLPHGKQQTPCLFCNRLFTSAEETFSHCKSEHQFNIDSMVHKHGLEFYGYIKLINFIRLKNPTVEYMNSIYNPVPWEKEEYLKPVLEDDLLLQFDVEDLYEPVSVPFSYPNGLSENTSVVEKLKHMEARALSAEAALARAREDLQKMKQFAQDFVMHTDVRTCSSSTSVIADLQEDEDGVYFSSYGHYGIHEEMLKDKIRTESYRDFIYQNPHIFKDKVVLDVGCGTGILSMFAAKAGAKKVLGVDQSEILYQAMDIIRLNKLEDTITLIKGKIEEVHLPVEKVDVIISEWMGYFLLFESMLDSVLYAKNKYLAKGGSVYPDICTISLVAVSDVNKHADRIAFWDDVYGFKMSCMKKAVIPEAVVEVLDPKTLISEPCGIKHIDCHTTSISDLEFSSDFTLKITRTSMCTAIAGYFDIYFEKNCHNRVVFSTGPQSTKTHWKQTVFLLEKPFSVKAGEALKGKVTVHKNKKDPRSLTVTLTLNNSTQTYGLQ

As for `CN(CCN)Cc1ncoc1-c1ccc(C#N)cc1` [Compound 1, 4-(4-(((2-aminoethyl)(methyl)amino)methyl)oxazol-5-yl)benzonitrile], the IC50 is > 10 µM under setting [1] and > 10 µM under setting [2].

Turning to `CN(CCN)Cc1ccnn1-c1ccc(C#N)cc1` [Compound 2, 4-(5-(((2-aminoethyl)(methyl)amino)methyl)-1H-pyrazol-1-yl)benzonitrile], the IC50 under setting [1] is > 10 µM and the IC50 under setting [2] is > 10 µM.

With `CN(CCN)Cc1n[nH]nc1-c1ccc(C#N)cc1` [Compound 3, 4-(5-(((2-aminoethyl)(methyl)amino)methyl)-2H-1,2,3-triazol-4-yl)benzonitrile], the IC50 runs as follows: under setting [1], > 10 µM; under setting [2], > 10 µM.
